Numbered stars: 1 amine (or outer) side, 2 acyl side, 3 side chain; on linkers, the order of the positions; unused ones are H or OH. Square brackets hold non-standard residues; d marks the D form. Peptide text beside a SMILES is read from it. * marks the point of attachment. Abu(4,4,4-F3) = N[C@@H](CC(F)(F)F)C(=O)O; Phe(4-CN) = N#Cc1ccc(C[C@H](N)C(=O)O)cc1; Phe(3-F) = N[C@@H](Cc1cccc(F)c1)C(=O)O; Phe(3-Me) = Cc1cccc(C[C@H](N)C(=O)O)c1; Dab(3S-OH) = NC[C@H](O)[C@H](N)C(=O)O; X4 = N=C(N)NCC/C=C(/N[*:1])C(=O)[*:2]; ΔZArg = N=C(N)NCC/C=C(\N)C(=O)O; dOrn = NCCC[C@@H](N)C(=O)O; Dab = NCC[C@H](N)C(=O)O; NH(CH2)5NH2 = NCCCCCN*; NH(CH2)4NH2 = NCCCCN*
Legend:
Assay in all cases: MIC, broth microdilution (CLSI), reference strain
Details in all cases: CAMHB
[1] = test system: Escherichia coli ATCC 25922
[2] = test system: Staphylococcus aureus ATCC 13709
[3] = test system: Acinetobacter baumannii ATCC 19606
[4] = test system: Pseudomonas aeruginosa ATCC 27853

| Structure (SMILES) | Ec: MIC Escherichia coli ATCC 25922 [1] | Sa: MIC Staphylococcus aureus ATCC 13709 [2] | Ab: MIC Acinetobacter baumannii ATCC 19606 [3] | Pa: MIC Pseudomonas aeruginosa ATCC 27853 [4] |
| --- | --- | --- | --- | --- |
| N=C(N)NCC/C=C(\NC(=O)[C@H](CCCCN)NC(=O)[C@H](Cc1cccc(F)c1)NC(=O)[C@@H]1CCCN1C(=O)[C@@H](CCCN)NC(=O)CNC(=O)[C@H](CCN)NC(=O)[C@@H](NC(=O)[C@@H](N)CCCCN)[C@@H](O)CN)C(=O)O [21.7] (H-K[Dab(3S-OH)][Dab]G[dOrn]P[Phe(3-F)]K[ΔZArg]-OH) | ++ (≤8 μg/mL) | ++ (≤8 μg/mL) | − (>32 μg/mL) | − (>32 μg/mL) |
| Cc1cccc(C[C@H](NC(=O)[C@@H]2CCCN2C(=O)[C@@H](CCCN)NC(=O)CNC(=O)[C@H](CCN)NC(=O)[C@@H](NC(=O)[C@@H](N)CCCCN)[C@@H](O)CN)C(=O)N[C@@H](CCCCN)C(=O)N/C(=C\CCNC(=N)N)C(=O)O)c1 [21.8] (H-K[Dab(3S-OH)][Dab]G[dOrn]P[Phe(3-Me)]K[ΔZArg]-OH) | ++ (≤8 μg/mL) | ++ (≤8 μg/mL) | − (>32 μg/mL) | − (>32 μg/mL) |
| N#Cc1ccc(C[C@H](NC(=O)[C@@H]2CCCN2C(=O)[C@@H](CCCN)NC(=O)CNC(=O)[C@H](CCN)NC(=O)[C@@H](NC(=O)[C@@H](N)CCCCN)[C@@H](O)CN)C(=O)N[C@@H](CCCCN)C(=O)N/C(=C\CCNC(=N)N)C(=O)O)cc1 [21.9] (H-K[Dab(3S-OH)][Dab]G[dOrn]P[Phe(4-CN)]K[ΔZArg]-OH) | ++ (≤8 μg/mL) | ++ (≤8 μg/mL) | − (>32 μg/mL) | − (>32 μg/mL) |
| COc1ccc(C[C@H](NC(=O)[C@@H]2CCCN2C(=O)[C@@H](CCCN)NC(=O)CNC(=O)[C@H](CCN)NC(=O)[C@@H](NC(=O)[C@@H](N)CCCCN)[C@@H](O)CN)C(=O)N[C@@H](CCCCN)C(=O)N/C(=C\CCNC(=N)N)C(=O)O)cc1 [21.10] (H-K[Dab(3S-OH)][Dab]G[dOrn]PY(Me)K[ΔZArg]-OH) | ++ (≤8 μg/mL) | ++ (≤8 μg/mL) | − (>32 μg/mL) | − (>32 μg/mL) |
| N=C(N)NCC/C=C(\NC(=O)[C@H](CCCCN)NC(=O)[C@H](CC(F)(F)F)NC(=O)[C@@H]1CCCN1C(=O)[C@@H](CCCN)NC(=O)CNC(=O)[C@H](CCN)NC(=O)[C@@H](NC(=O)[C@@H](N)CCCCN)[C@@H](O)CN)C(=O)O [21.11] (H-K[Dab(3S-OH)][Dab]G[dOrn]P[Abu(4,4,4-F3)]K[ΔZArg]-OH) | ++ (≤8 μg/mL) | ++ (≤8 μg/mL) | − (>32 μg/mL) | − (>32 μg/mL) |
| N=C(N)NCC/C=C(\NC(=O)[C@H](CCCCN)NC(=O)[C@H](Cc1c[nH]c2ccccc12)NC(=O)[C@@H]1CCCN1C(=O)[C@@H](CCCN)NC(=O)CNC(=O)[C@H](CCN)NC(=O)[C@@H](NC(=O)[C@@H](N)CCCCN)[C@@H](O)CN)C(=O)O [21.12] (H-K[Dab(3S-OH)][Dab]G[dOrn]PWK[ΔZArg]-OH) | ++ (≤8 μg/mL) | ++ (≤8 μg/mL) | − (>32 μg/mL) | − (>32 μg/mL) |

Next, values leading:

| Ec: MIC Escherichia coli ATCC 25922 [1] | Sa: MIC Staphylococcus aureus ATCC 13709 [2] | Ab: MIC Acinetobacter baumannii ATCC 19606 [3] | Pa: MIC Pseudomonas aeruginosa ATCC 27853 [4] | Structure (SMILES) |
| --- | --- | --- | --- | --- |
| ++ (≤8 μg/mL) | ++ (≤8 μg/mL) | + (≤32 μg/mL) | ++ (≤8 μg/mL) | N=C(N)NCC/C=C(\NC(=O)[C@H](CCCCN)NC(=O)[C@H](Cc1cnc[nH]1)NC(=O)[C@@H]1CCCN1C(=O)[C@@H](CCCN)NC(=O)CNC(=O)[C@@H](NC(=O)[C@@H](NC(=O)[C@@H](N)CCCCN)[C@@H](O)CN)[C@@H](O)CN)C(=O)N[C@H](CCCCN)C(=O)NCCCCN [22.1] (H-K[Dab(3S-OH)][Dab(3S-OH)]G[dOrn]PHK[ΔZArg][dK]-{NH(CH2)4NH2}) |
| ++ (≤8 μg/mL) | ++ (≤8 μg/mL) | − (>32 μg/mL) | + (≤32 μg/mL) | N=C(N)NCC/C=C(\NC(=O)[C@H](CCCCN)NC(=O)[C@H](Cc1cnc[nH]1)NC(=O)[C@@H]1CCCN1C(=O)[C@@H](CCCN)NC(=O)CNC(=O)[C@@H](NC(=O)[C@@H](NC(=O)[C@@H](N)CCCCN)[C@@H](O)CN)[C@@H](O)CN)C(=O)NCCCCCN [22.2] (H-K[Dab(3S-OH)][Dab(3S-OH)]G[dOrn]PHK[ΔZArg]-{NH(CH2)5NH2}) |
| + (≤32 μg/mL) | ++ (≤8 μg/mL) | − (>32 μg/mL) | − (>32 μg/mL) | N=C(N)NCC/C=C(\NC(=O)[C@H](CCCCN)NC(=O)[C@H](Cc1cnc[nH]1)NC(=O)[C@@H]1CCCN1C(=O)[C@@H](CCCN)NC(=O)CNC(=O)[C@@H](NC(=O)[C@@H](NC(=O)[C@H](N)CCCCN)[C@@H](O)CN)[C@@H](O)CN)C(=O)N[C@@H](CCCCN)C(=O)NCCCCN [22.6] (H-[dK][Dab(3S-OH)][Dab(3S-OH)]G[dOrn]PHK[ΔZArg]K-{NH(CH2)4NH2}) |
| ++ (≤8 μg/mL) | ++ (≤8 μg/mL) | + (≤32 μg/mL) | ++ (≤8 μg/mL) | N=C(N)NCC/C=C(/NC(=O)[C@H](CCCCN)NC(=O)[C@H](Cc1cnc[nH]1)NC(=O)[C@@H]1CCCN1C(=O)[C@@H](CCCN)NC(=O)CNC(=O)[C@@H](NC(=O)[C@@H](NC(=O)[C@@H](N)CCCCN)[C@@H](O)CN)[C@@H](O)CN)C(=O)N[C@@H](CCCCN)C(=O)NCCCCN [22.7] (H-K[Dab(3S-OH)][Dab(3S-OH)]G[dOrn]PHK[X4]K-{NH(CH2)4NH2}) |
| ++ (≤8 μg/mL) | ++ (≤8 μg/mL) | + (≤32 μg/mL) | ++ (≤8 μg/mL) | N=C(N)NCC/C=C(\NC(=O)[C@H](CCCCN)NC(=O)[C@H](Cc1cnc[nH]1)NC(=O)[C@@H]1CCCN1C(=O)[C@@H](CCCN)NC(=O)CNC(=O)[C@@H](NC(=O)[C@@H](NC(=O)[C@@H](N)CCCCN)[C@@H](O)CN)[C@@H](O)CN)C(=O)N[C@@H](CCCCN)C(N)=O [22.8] (H-K[Dab(3S-OH)][Dab(3S-OH)]G[dOrn]PHK[ΔZArg]K-NH2) |
| ++ (≤8 μg/mL) | ++ (≤8 μg/mL) | − (>32 μg/mL) | + (≤32 μg/mL) | C[C@H](NC(=O)/C(=C/CCNC(=N)N)NC(=O)[C@H](CCCCN)NC(=O)[C@H](Cc1cnc[nH]1)NC(=O)[C@@H]1CCCN1C(=O)[C@@H](CCCN)NC(=O)CNC(=O)[C@@H](NC(=O)[C@@H](NC(=O)[C@@H](N)CCCCN)[C@@H](O)CN)[C@@H](O)CN)C(=O)NCCCCN [22.10] (H-K[Dab(3S-OH)][Dab(3S-OH)]G[dOrn]PHK[ΔZArg]A-{NH(CH2)4NH2}) |

Source: patent US10626144B2, “Peptide derivatives and uses thereof” (Nosopharm, priority 2014, dated 2020)
